Results published in a melting point compilation (Tetko et al.; mined from patent text by program, amines drawn as free bases though some values may be those of a salt).

Row | SMILES | melting point
1 | COc1cc[nH]c1C=C1C(=O)Nc2cccc(C#CC(O)c3ccc(OCC(=O)OC(C)(C)C)cc3)c21 (racemic) | 173 to 175 °C
2 | CCCc1nc2c(N)nc3ccccc3c2n1CCCCC(N)=O | 202 to 203 °C
3 | CC1=C(C(=O)O)N2C(=O)C(NC(=O)Cc3ccc(CN=[N+]=[N-])cc3)C2SC1 (centres undefined) | 154 to 155 °C
4 | CCc1ccc(NC2=CC3=NCN(C)C3=CC2(F)C(=O)OC)c(F)c1 (centres undefined) | 238 °C
5 | CC1CC(=O)NN=C1c1ccc(-n2cncn2)nc1 (centres undefined) | 256 to 257 °C
6 | Ic1cccc(OCCCCCCOc2c(I)cc(I)cc2I)c1 | 65 to 66 °C
7 | COC(=O)C(C)(N)Cc1c[nH]c2ccc(Cl)cc12 (racemic) | 170 °C
8 | NCCCCC(=O)N1CCC(c2[nH]nc3c2C(=O)c2c(NC(=O)NN4CCOCC4)cccc2-3)CC1 | 103 to 105 °C
9 | O=C(O)COc1ccc2c(c1)CCc1sc(S(=O)(=O)CCC(c3ccccc3)c3ccccc3)nc1-2 | 175 to 177 °C
10 | Cc1nnc(C=Cc2ccccc2OCC2CO2)s1 (centres undefined) | 134 to 135 °C
11 | O=CC(=C(c1ccc(F)cc1)c1ccc(F)cc1)n1cnnn1 | 161 °C
12 | O=C(O)c1cnn2c(C(F)F)cc(-c3ccc(Cl)c(Cl)c3)nc12 | 263 °C
13 | CCCc1nc2c(N)nc3cccnc3c2n1CCCCN(OC)C(C)=O | 155 to 156 °C
14 | COC(=O)C(=O)c1c(Cl)cc(OCCOc2ccc3ccccc3c2)cc1Cl | 142 to 144 °C
15 | COc1ccc2oc(Cn3cnc4c(N)ncnc43)c(-c3ccccc3)c(=O)c2c1 | 197 to 198 °C
16 | CC(C)(Cn1cnc2c(N)nc3ccccc3c21)OCCS(C)(=O)=O | 261 to 264 °C
17 | O=C(O)c1ccc2c(c1)oc(=O)c1cc(C(=O)O)ccc12 | > 300 °C
18 | NC=C1Cc2ccccc2C1=O | 163 to 165 °C
19 | CCOC(=O)Cc1nsc2ccc(-n3c(=O)cc(C(F)(F)F)n(C)c3=O)cc12 | 150 to 152 °C
20 | Nc1cccc(-c2cccc(-c3nc(-c4ccc(C(F)(F)F)cc4)cc(C(F)(F)F)n3)c2)c1 | 156 °C
21 | Cc1c(C(N)=O)sc2cncc(Oc3ccc(Br)cc3)c12 | 78 to 80 °C
22 | N#Cc1ccc(/C=C/c2nc[nH]c2[N+](=O)[O-])cc1 | > 300 °C
23 | Cc1[nH]c(N)c(C)c1-c1ccnc(Nc2ccc(F)cc2)n1 | 227 to 231 °C
24 | CCCNC(=O)c1ccsc1N=C(OCCC)OCCC | 57 to 58 °C
25 | CC(C)(C)OC(=O)Nc1ccc(N2CCNCC2)cc1 | 155 to 157 °C

Row | SMILES | melting point
26 | CC(=O)NNc1ccnc2c(NC(=O)c3c(Cl)cccc3Cl)ccc(Cl)c12 | 158 to 161 °C
27 | COC[C@H]1CC[C@H](c2ccc(I)cc2)CC1 | 40.3 to 42.3 °C
28 | O=C(Nc1cccnc1)NC(NC(=O)c1ccc(Cl)cc1)C(Cl)(Cl)Cl (centres undefined) | 166 to 168 °C
29 | COC(=O)c1nc(C)[nH]c1C(=O)OC | 138 to 140 °C
30 | CCOC(=O)C1=C(C)NC(=S)N(S(=O)(=O)c2ccccc2)C1c1cccc([N+](=O)[O-])c1 (centres undefined) | 162 to 164 °C
31 | CCn1c(=O)n(-c2ccc(Oc3nc4cccnc4n3C)cc2)c2nccc(C(F)(F)F)c21 | 244 to 246 °C
32 | O=c1nc(-c2ccc3c(n2)CCCC3)sc2ccccc12 | 232 to 233 °C
33 | N#CC(=NNc1c(Cl)cc(C(F)(F)F)cc1Cl)c1ccc(Cl)cc1 | 164 to 165 °C
34 | CNC(=O)Oc1ccccc1 | 84 to 85 °C
35 | COCN(c1cccc2cc(C(=O)/N=C/N(C)C)n(COC)c12)S(=O)(=O)c1cccs1 | 146 to 147 °C
36 | COc1cc2c(cc1-c1cc(F)ccc1F)NC(=O)CC(c1cccc(-n3ccnn3)c1)=N2 | 241 °C
37 | O=C(CCCl)Nc1ccc2c(c1NC(=O)CCCl)C(=O)c1ccccc1C2=O | 179 to 180 °C
38 | CCc1c(OC)nc(OC)nc1C(=O)c1cc(C)cc(C=O)c1 | 89 to 91 °C
39 | COc1cc(NCCCCCCN2CCN(c3ccc(Cl)c(Cl)c3)CC2)c2nccc(C)c2c1 | 92 to 94 °C
40 | O=Cc1cc(C#Cc2cccc(Br)c2)c[nH]1 | 152 to 156 °C
41 | Nc1nc2c(ncn2OCC/C=C\P(=O)(O)O)c(=O)[nH]1 | 240 to 242 °C
42 | Cc1ccc2c(n1)Oc1ccc(C(C)C(=O)OCC(N)=O)cc1C2 (centres undefined) | 175 to 177 °C
43 | Cc1nc2nc(SCc3ccccc3)nn2c(C)c1Cl | 164 to 166 °C
44 | CC1CC1n1cc(C(=O)O)c(=O)c2cc(F)c(N3CCNCC3)cc21 (centres undefined) | 110 to 120 °C
45 | COc1cc2nc(N3CCCN(C(=O)C=Cc4cccnc4)CC3)nc(N)c2cc1OC | 141 to 143 °C
46 | CCNc1nc(Oc2ccccc2)nc2nc(-c3ccco3)nn12 | 127 to 129 °C
47 | CC(=NNc1ccc(C2=NNC(=O)CC2)cc1)c1cscn1 | > 300 °C
48 | CCCC(=O)C(=CNc1ccccc1OC)C(=O)OCC | 74 to 76 °C
49 | Cc1cccc(Nc2ccccc2C(=O)NO)c1C | 124 to 125 °C
50 | Cc1cc(Oc2cccc(C#CC(C)N(O)C(N)=O)c2)ccc1F (centres undefined) | 141 to 142 °C

Row | SMILES | melting point
51 | COc1ccc2c(c1)N(c1ccc(F)cc1)C(=O)C2(CCc1nnn[nH]1)NC(=O)c1cc2ccccc2cn1 (centres undefined) | 154 to 160 °C
52 | Cc1ccc(OCc2ccccc2)c(C(CCN2CC3(C)CC3(C)C2)c2ccccc2)c1 (centres undefined) | 93 to 95 °C
53 | CCCOc1c(OC)cc(N)c2ncccc12 | 73 to 74 °C
54 | N#Cc1c(N2CCCN(c3ccccc3)CC2)cc[nH]c1=S | 128 to 132 °C
55 | CC(=O)NC(C)(C(=O)O)C(C)C (centres undefined) | 189 to 190 °C
56 | Cc1ccccc1Oc1cccc(CCC(=O)O)c1O | 106 to 107 °C
57 | CCOC(=O)c1ccnnc1NC(=O)Cc1c(F)cc(F)cc1F | 135 °C
58 | NC(=O)c1ncn(Cc2ccc(Cl)c(C(F)(F)F)c2)c1N | 230 to 232 °C
59 | Cc1oc(-c2ccccc2)nc1CCOc1ccc(C[C@H](NC(=O)C=Cc2cccc(Cl)c2)C(=O)O)cc1 | 204 to 206 °C
60 | CC(=O)On1c(=O)c(=O)[nH]c2cc(Cl)ccc21 | 219 °C
61 | CCCOC(Nc1ccccc1)(OCCC)c1ccnc(C(=O)c2ccc(Cl)cc2)c1 | 140 to 141 °C
62 | Cc1cc(C)cc(-c2cccc3ccccc23)c1 | 68 to 70 °C
63 | COc1cc(N2CCCN(C)CC2)ccc1Nc1ncc2ccc(-c3ccccc3N(C)S(C)(=O)=O)n2n1 | 98 to 105 °C
64 | COc1ccc(C(=O)N2CCCCC2)c(NC(=O)N[C@@H](Cc2ccc(NC(=O)c3c(Cl)cccc3Cl)cc2)C(=O)O)c1 | 176 °C
65 | CCOC(=O)CNC(=O)Oc1c(C)n(C)ccc1=O | 132 to 135 °C
66 | Cc1cccc2c1nc(-c1cccnc1)n2Cc1c(F)cccc1F | 186 to 188 °C
67 | CCCn1c(=O)nc(Sc2ccc(Cl)cc2)sc1=S | 151 to 152 °C
68 | CC(C)(C)c1ccc2c(c1)C([Si](C)(C)C)c1cc(C(C)(C)C)ccc1-2 | 144 to 146 °C
69 | CC(C)(C)NC(=O)c1nn(-c2ccc(C(F)(F)F)cc2)c2c1C1CCC2CC1 | 174 to 176 °C
70 | CCOC(=O)C1=C(C)NC(COC(C)=O)=C(C(=O)OCC)C1c1ccccc1 (centres undefined) | 104 to 106 °C
71 | C[C@H]1CCCN(C(=O)Cc2ccc(Cl)c(Cl)c2)[C@H]1CO (relative stereo) | 161 to 162 °C
72 | Nc1nc(=O)n(CC2CC2)cc1F | 224 to 226 °C
73 | CSc1c(CC(=O)O)ccc2c3ccccc3n(Cc3ccc(Cl)cc3)c12 | 176 to 178 °C
74 | CN1C(=O)CC[C@]2(C)c3ccc(-c4cccc(Cl)c4Cl)cc3CC[C@@H]12 | 131 to 134 °C
75 | CCCc1nc2ccc(OC(F)(F)F)cc2[nH]1 | 88 to 90 °C

Row | SMILES | melting point
76 | CC(=O)NNc1ccc(-n2c(-c3ccccc3)csc2=S)cc1 | 230 to 232 °C
77 | COC(=O)CCCC(=O)Nc1ccc(C(=O)NN=C2C(=O)Nc3ccc(I)cc32)cc1 | 282 °C
78 | CC(=O)OCC1OC(n2cnc3c(NN4CCCCC4)nc(N)nc32)C(OC(C)=O)C1OC(C)=O (centres undefined) | 77 to 79 °C
79 | CC1(C(=O)O)CCc2cc(O)ccc2O1 (centres undefined) | 190 to 192 °C
80 | CON(C)Cc1nc2c(N)nc3ccccc3c2n1CC1CCOCC1 | 223 to 226 °C
81 | Cn1cc(-c2ccccc2)c(=O)c(-c2ccccc2F)c1 | 165 °C
82 | CCCN(CCC)c1c(CC)nn2c(-c3cnc(N(C)C)cc3C)cccc12 | 98.5 to 100 °C
83 | CC(C)C(=O)Oc1ccc(C(=O)c2ccccc2)cc1 | 69 to 69.5 °C
84 | COCSc1nccn1-c1cccc(C(=O)CC(=O)Nc2cc(-c3ccccc3F)ccc2NC(=O)OC(C)(C)C)c1 | 83 to 86 °C
85 | CNC(=O)C1OC(n2cnc3c(NCc4cc(Cl)ccc4OCc4cc(C)no4)ncnc32)C(O)C1NC(=O)OC(C)(C)C (centres undefined) | 135 to 137 °C
86 | C=CCN1CCN(CCC(=O)N2c3ccccc3C(=O)Nc3cccnc32)CC1 | 205 to 207 °C
87 | Cn1c(=O)c2c(N)nc(N)nc2n(C)c1=O | > 300 °C
88 | COC(=O)C[C@@H](N)c1ccc(NC(=O)Cc2ccc(NC(=O)Nc3ccccc3C)c(OC)c2)cc1 | 189 to 191 °C
89 | Cn1ncc(/C=C/C(=O)Nc2ccc3[nH]c(=O)oc3c2)c1-c1ccc(F)cc1 | > 300 °C
90 | O=c1nc(-c2cccc(CNS(=O)(=O)c3ccccc3)n2)sc2ccccc12 | 207 to 208 °C
91 | O=C(c1ccccc1F)c1cc(Cl)ccc1C(=O)C(Br)CN1C(=O)c2ccccc2C1=O (centres undefined) | 125 to 128 °C
92 | Nc1ccc(CNc2n[nH]c3ncnc(Nc4cccc(Cl)c4)c23)cc1 | 170 to 171 °C
93 | Cc1cc(C)c2cccc(OCc3c(Cl)ccc(S(=O)(=O)N4CCC[C@H]4C(=O)NCCCN(C)C(=O)c4ccc(C=NN)cc4)c3Cl)c2n1 | 158 °C
94 | Nc1nc2ccccc2n(-c2ccc(Cl)cc2)c1=O | 254 to 255 °C
95 | Cc1ccc(/C=C/C(=O)O)n1Cc1ccc(Cl)cc1Cl | 181 to 182 °C
96 | COc1c(C#N)c(C)cc2c1C(C)(C)CCC2(C)C | 71 to 73 °C
97 | CC(C)CC(SCC1CCCCC1)c1c(O)cc(-c2ccccc2)oc1=O (centres undefined) | 146 to 148 °C
98 | CCOC(=O)C=Cc1ccc(N[C@@H](CCC(N)=O)C(=O)O)cc1 | 192 to 193 °C
99 | CCOC=Nc1ccc2nnc(-c3ccc([N+](=O)[O-])s3)n2n1 | 180 to 182 °C
